Reference: ChEMBL document CHEMBL1201862, “PubChem BioAssay data set” (2004)
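Briefly, cells in 96-well plates were exposed to five compound concentrations for 48 h, and endpoints were estimated by linear interpolation. The concentration for 50% growth inhibition is given as GI50.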 The source made the active and inactive calls. No stated cut-off is given here; in the data, active = GI50 up to about 1.1 µM and inactive = higher.

Columns and labels:
Experiment in all cases: DTP human tumour cell line panel, 48 h
786-0 = system: 786-0
A549 = system: A549
ACHN = system: ACHN
CAKI-1 = system: CAKI-1
CCRF-CEM = system: CCRF-CEM
COLO 205 = system: COLO 205
DLD-1 = system: DLD-1
DMS-114 = system: DMS-114
DMS-273 = system: DMS-273
HCT-116 = system: HCT-116
HCT-15 = system: HCT-15
HL-60 = system: HL-60
HOP-18 = system: HOP-18
HOP-62 = system: HOP-62
HT-29 = system: HT-29
IGROV-1 = system: IGROV-1
K562 = system: K562
KM12 = system: KM12
LOX IMVI = system: LOX IMVI
LXFL 529 = system: LXFL 529
M14 = system: M14
M19-MEL = system: M19-MEL
MOLT-4 = system: MOLT-4
Malme-3M = system: Malme-3M
NCI-H226 = system: NCI-H226
NCI-H23 = system: NCI-H23
NCI-H460 = system: NCI-H460
NCI-H522 = system: NCI-H522
OVCAR-4 = system: OVCAR-4
OVCAR-5 = system: OVCAR-5
OVCAR-8 = system: OVCAR-8
RPMI-8226 = system: RPMI-8226
RXF 393 = system: RXF 393
SF-268 = system: SF-268
SF-295 = system: SF-295
SF-539 = system: SF-539
SK-MEL-28 = system: SK-MEL-28
SK-MEL-2 = system: SK-MEL-2
SK-MEL-5 = system: SK-MEL-5
SK-OV-3 = system: SK-OV-3
SN12C = system: SN12C
SNB-75 = system: SNB-75
SR = system: SR
SW-620 = system: SW-620
TK-10 = system: TK-10
U-251 = system: U-251
UACC-257 = system: UACC-257
UACC-62 = system: UACC-62
UO-31 = system: UO-31
A498 = system: A498
EKVX = system: EKVX
HCC 2998 = system: HCC 2998
HOP-92 = system: HOP-92
KM-20L2 = system: KM-20L2
OVCAR-3 = system: OVCAR-3
SNB-19 = system: SNB-19
SNB-78 = system: SNB-78

`[N-]=[N+]=Nc1cc(=O)oc2ccccc12` was tested, and the GI50 (786-0) was > 100 µM (inactive), the GI50 (A549) was > 100 µM (inactive) and the GI50 (ACHN) was > 100 µM (inactive). For the same compound, the GI50 (CAKI-1) was > 100 µM (inactive), the GI50 (CCRF-CEM) was > 100 µM (inactive) and the GI50 (COLO 205) was > 100 µM (inactive). For the same compound, the GI50 (DLD-1) was > 100 µM (inactive), the GI50 (DMS-114) was 42.2 µM (inactive) and the GI50 (DMS-273) was > 100 µM (inactive). For the same compound, the GI50 (HCT-116) was > 100 µM (inactive), the GI50 (HCT-15) was over 100 µM and the GI50 (HL-60) was > 100 µM (inactive). The GI50 (HOP-18) was > 100 µM (inactive), the GI50 (HOP-62) was > 100 µM (inactive) and the GI50 (HT-29) was > 100 µM (inactive). For the same compound, the GI50 (IGROV-1) was > 100 µM (inactive), the GI50 (K562) was > 100 µM (inactive) and the GI50 (KM12) was > 100 µM (inactive). For the same compound, the GI50 (LOX IMVI) was > 100 µM (inactive), the GI50 (LXFL 529) was > 100 µM (inactive) and the GI50 (M14) was > 100 µM (inactive). For the same compound, the GI50 (M19-MEL) was > 100 µM (inactive), the GI50 (MOLT-4) was > 100 µM (inactive) and the GI50 (Malme-3M) was > 100 µM (inactive). For the same compound, the GI50 (NCI-H226) was > 100 µM (inactive), the GI50 (NCI-H23) was > 100 µM (inactive) and the GI50 (NCI-H460) was > 100 µM (inactive). For the same compound, the GI50 (NCI-H522) was > 100 µM (inactive), the GI50 (OVCAR-4) was > 100 µM (inactive) and the GI50 (OVCAR-5) was > 100 µM (inactive). For the same compound, the GI50 (OVCAR-8) was > 100 µM (inactive), the GI50 (RPMI-8226) was > 100 µM (inactive) and the GI50 (RXF 393) was > 100 µM (inactive). For the same compound, the GI50 (SF-268) was > 100 µM (inactive), the GI50 (SF-295) was > 100 µM (inactive) and the GI50 (SF-539) was > 100 µM (inactive). For the same compound, the GI50 (SK-MEL-28) was > 100 µM (inactive), the GI50 (SK-MEL-2) was > 100 µM (inactive) and the GI50 (SK-MEL-5) was > 100 µM (inactive). For the same compound, the GI50 (SK-OV-3) was > 100 µM (inactive), the GI50 (SN12C) was > 100 µM (inactive) and the GI50 (SNB-75) was > 100 µM (inactive). For the same compound, the GI50 (SR) was 48.9 µM (inactive), the GI50 (SW-620) was > 100 µM (inactive) and the GI50 (TK-10) was > 100 µM (inactive). For the same compound, the GI50 (U-251) was > 100 µM (inactive), the GI50 (UACC-257) was > 100 µM (inactive) and the GI50 (UACC-62) was > 100 µM (inactive). For the same compound, the GI50 (UO-31) was > 100 µM (inactive).
`COC(=O)C1CCc2c(OC)ccc(OC)c2C1=O` (centres undefined) was tested, and the GI50 (786-0) was > 100 µM (inactive), the GI50 (A498) was > 100 µM (inactive) and the GI50 (A549) was > 100 µM (inactive). For the same compound, the GI50 (ACHN) was > 100 µM (inactive), the GI50 (CAKI-1) was > 100 µM (inactive) and the GI50 (CCRF-CEM) was > 100 µM (inactive). The GI50 (COLO 205) was > 100 µM (inactive), the GI50 (DLD-1) was > 100 µM (inactive) and the GI50 (DMS-114) was > 100 µM (inactive). For the same compound, the GI50 (DMS-273) was > 100 µM (inactive), the GI50 (EKVX) was > 100 µM (inactive) and the GI50 (HCC 2998) was > 100 µM (inactive). The GI50 (HCT-116) was > 100 µM (inactive), the GI50 (HL-60) was > 100 µM (inactive) and the GI50 (HOP-18) was > 100 µM (inactive). The GI50 (HOP-62) was > 100 µM (inactive), the GI50 (HOP-92) was > 100 µM (inactive) and the GI50 (HT-29) was > 100 µM (inactive). For the same compound, the GI50 (IGROV-1) was > 100 µM (inactive), the GI50 (K562) was > 100 µM (inactive) and the GI50 (KM-20L2) was > 100 µM (inactive). For the same compound, the GI50 (KM12) was > 100 µM (inactive), the GI50 (LOX IMVI) was > 100 µM (inactive) and the GI50 (LXFL 529) was > 100 µM (inactive). For the same compound, the GI50 (M14) was > 100 µM (inactive), the GI50 (M19-MEL) was > 100 µM (inactive) and the GI50 (MOLT-4) was > 100 µM (inactive). For the same compound, the GI50 (Malme-3M) was > 100 µM (inactive), the GI50 (NCI-H23) was > 100 µM (inactive) and the GI50 (NCI-H460) was > 100 µM (inactive). The GI50 (NCI-H522) was > 100 µM (inactive), the GI50 (OVCAR-3) was > 100 µM (inactive) and the GI50 (OVCAR-4) was > 100 µM (inactive). For the same compound, the GI50 (OVCAR-5) was > 100 µM (inactive), the GI50 (OVCAR-8) was > 100 µM (inactive) and the GI50 (RPMI-8226) was > 100 µM (inactive). For the same compound, the GI50 (SF-295) was > 100 µM (inactive), the GI50 (SF-539) was > 100 µM (inactive) and the GI50 (SK-MEL-28) was > 100 µM (inactive). The GI50 (SK-MEL-2) was > 100 µM (inactive), the GI50 (SK-MEL-5) was > 100 µM (inactive) and the GI50 (SK-OV-3) was > 100 µM (inactive). The GI50 (SNB-19) was > 100 µM (inactive), the GI50 (SNB-78) was > 100 µM (inactive) and the GI50 (SW-620) was > 100 µM (inactive). The GI50 (TK-10) was > 100 µM (inactive), the GI50 (U-251) was > 100 µM (inactive) and the GI50 (UACC-257) was > 100 µM (inactive). The GI50 (UACC-62) was > 100 µM (inactive) and the GI50 (UO-31) was > 100 µM (inactive).
